Consider two compounds from US12600727B2, “Treatment of infections of toxoplasma gondii and closely related parasites” (WASHINGTON UNIVERSITY, priority 2018, dated 2026).

Common to all, as to format: cell-based
Test [1] deals with Toxoplasma gondii strains expressing FLUC. The test can be described thus: microbe, parasite or virus in culture. Here is the method: The ability of bicyclic azetidines to inhibit different strains of T. gondii was tested using a series of firefly luciferase (FLUC)-tagged lines. […] A similar strategy was utilized to derive FLUC expressing lines from additional T. gondii strains MAS (type 4) and FOU (type 6).

For test [2], the system named is Neospora caninum parasites (NC-1 strain). Description: N. caninum (NC-1, lac-Z) growth inhibition in HFF, β-Gal assay. As to conditions: N. caninum NC-1 lac-Z, 72 h, 10-point dose response 5 μM-0.01 μM, average of three biological replicates, read-out: EC50. Here is the method: Neospora caninum parasites (NC-1 strain) expressing a lac-Z transgene (1) were serially passaged as tachyzoites in human foreskin fibroblasts cultured in DMEM supplemented with 10% fetal bovine serum (FBS), glutamine (10 mM) and gentamycin (10 μg/mL). Mature cultures were scraped, syringe passed using a 25 g needle to release parasites, filtered through a 3 micron polycarbonate filter to remove host cell debris and counted prior to each assay. All cultures were maintained in a 37° C. incubator with 5% CO2 and were verified mycoplasma free using the e-Myco plus Mycoplasma PCR detection kit (Boca Scientific).
Compounds were prepared as 10 mM stock in 100% DMSO. Pyrimethamine (positive control) and DMSO were included as controls in all plates and all replicates. The EC50 values were determined using a 10-point dose response curve using a 2-fold dilution series from 5.0 μM to 0.01 μM across the plate. Experiments were conducted in 96-well plates containing confluent HFF cells. Each assay plate was inoculated with 1×10^3 parasites (100 μL) containing 100 μL of 2× compound and incubated for 72 h prior to preparation for the j-Gal assay as described in Seeber, F. et al., Gene 169 (1996): 39-45, hereby incorporated by reference in its entirety and particularly in relation to the β-Gal assay protocol. Briefly, culture medium was replaced, wells rinsed with 200 μL of PBS followed by incubation with 50 μL of lysis buffer (100 mM HEPES, 1 mM MgSO4, 1% Triton X-100, 5 mM DTT) for 10 min at 50° C.
EC50 values determined from 10-point dose response curve (5 μM-0.01 μM) and presented as the average of three biological replicates. Linear regression and dose response inhibition (log ([compound]) vs normalized response-variable slope) were performed with Prism 8 for Mac (Graphpad Software, Inc.) and both the fits and data are shown in FIG. 1. Values represent the average of three biological replicates each with two internal replicates and are plotted as mean±S.E.M.

Test [3] has as its system Toxoplasma gondii tachyzoites (ME49-FLUC, type 2). Description: T. gondii ME49-FLUC tachyzoite growth inhibition in HFF, luciferase assay. As to conditions: T. gondii ME49-FLUC (type 2) tachyzoites in HFF. Here is the method:
Toxoplasma gondii tachyzoites (ME49-FLUC, type 2) (27) were serially passaged in human foreskin fibroblasts (HFF) cultured in complete DMEM medium (DMEM supplemented with 10% fetal bovine serum (FBS), glutamine (10 mM) and gentamycin (10 μg/mL)). For each assay described, infected monolayers were scraped, needle passed (23 ga), and parasites were separated from host cell debris using a three (3) micron pore polycarbonate filter. HeLa cells were cultured in MEM media that contained 10% FBS, 4 mM L-glutamine and 10 mM HEPES solution. Cell culture and assays were conducted using a 37° C. incubator with 5% CO2. Cell cultures were negative for mycoplasma, as determined using the e-Myco plus kit (Intron Biotechnology).
White, clear bottom 96-well assay plates were set up as described above with the following modifications. Only the inner 60 wells were used for the assay in order to reduce variability that results from evaporation during incubation. Dilution of compound stock is as described above, with all wells containing a final concentration of 0.1% DMSO. DMSO (vehicle control) and pyrimethamine (2.5 μM, positive control) were included in the outside wells of all plates as controls. Liquid handling (serial dilutions, compound dilutions, cell feeding, plate-to-plate transfers, etc.) utilized a Dual Pod Biomek FX. Luciferase assays were performed using the integrated and automated platform (Beckman Coulter). The SAMI EX software was used to design and execute the screening assay and enabled efficient and uniform assay execution across all the assay plates.

Like-named read-outs stand apart in the source and are kept apart here.

Take `COc1ccc(NC(=O)N2CCCCN3[C@H](CN(C)C)[C@H](c4ccc(C#Cc5ccccc5)cc4)[C@@H]3C2)cc1` [Compound 15, (8R,9S,10S)-10-((dimethylamino)methyl)-N-(4-methoxyphenyl)-9-(4-(phenylethynyl)phenyl)-1,6-diazabicyclo[6.2.0]decane-6-carboxamide]: the 50% effective concentration (EC50) (as a rule, the midpoint of the concentration-response curve) was 41.9 nM in test [1] (genotype 4, read-out: Average EC50 ± S.D.); 26.9 nM in test [1] (genotype 5, read-out: Average EC50 ± S.D.); 45.1 nM in test [1] (genotype 6, read-out: Average EC50 ± S.D.); 49.4 nM in test [1] (strain ME49, genotype 2, three or more independent titrations, read-out: Average EC50 ± S.D.); 27.9 nM in test [1] (strain VAND, genotype 10, three or more independent titrations, read-out: Average EC50 ± S.D.); 250 nM in test [2]. In addition, the midpoint of the response in test [3], the EC50, lay at 22.6 nM.

As to `CN(C[C@@H]1[C@H](c2ccc(C#Cc3ccccc3)cc2)[C@@H]2CN(C(=O)Nc3ccc(OC4CC4)cc3)CCCCN12)S(C)(=O)=O` [Compound 14, (8R,9R,10S)-N-(4-cyclopropoxyphenyl)-10-((N-methylmethylsulfonamido)methyl)-9-(4-(phenylethynyl)phenyl)-1,6-diazabicyclo[6.2.0]decane-6-carboxamide], the concentration giving a half-maximal response (EC50) in test [2] is 37 nM; in test [3] it was 18.5 nM.
